Reference: patent US20220348590A1, “CYCLOOXYGENASE-2 INHIBITORS AND USES THEREOF” (The Board Institute, Inc., priority 2019, published 2022)
Read-outs that look alike come from different tables or passages of the source.

Target: T1, human recombinant COX2 (hCOX2) (UniProt P35354)
T1 sequence (P35354 1-604): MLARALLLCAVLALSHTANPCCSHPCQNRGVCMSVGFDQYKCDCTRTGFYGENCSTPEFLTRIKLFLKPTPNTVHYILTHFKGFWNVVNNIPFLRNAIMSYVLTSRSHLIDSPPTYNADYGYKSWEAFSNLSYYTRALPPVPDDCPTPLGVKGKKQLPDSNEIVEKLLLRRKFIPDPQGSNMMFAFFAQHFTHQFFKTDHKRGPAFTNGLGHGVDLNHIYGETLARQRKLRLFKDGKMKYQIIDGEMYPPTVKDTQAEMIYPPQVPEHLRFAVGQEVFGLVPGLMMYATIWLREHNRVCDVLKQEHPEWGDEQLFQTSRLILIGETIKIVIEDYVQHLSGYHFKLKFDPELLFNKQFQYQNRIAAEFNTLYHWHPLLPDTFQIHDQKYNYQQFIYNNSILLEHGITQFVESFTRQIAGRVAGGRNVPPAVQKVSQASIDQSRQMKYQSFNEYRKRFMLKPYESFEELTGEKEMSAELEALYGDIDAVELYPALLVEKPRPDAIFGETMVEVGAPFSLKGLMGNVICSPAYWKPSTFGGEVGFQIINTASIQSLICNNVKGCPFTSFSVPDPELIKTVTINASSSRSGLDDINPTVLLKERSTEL
Test: LCMS-based COX2 enzymatic inhibition assay (PGE2 quantification)
Assay type: biochemical
Set-up: COX2 2 minutes pge2/pge2d4 area ratio Avg; other: 2 minutes; readout pge2/pge2d4 area ratio; average; COX2 2 minutes pge2/pge2d4 area ratio Avg; LLE; average LLE; COX2 2 minutes pge2 area (counts) Avg; readout pge2 area (counts); other: 2 min; "ovine COX2 (oCOX2), human recombinant COX2 (hCOX2)"
Settings: 2 minutes; for COX2 2 minutes pge2/pge2d4 area ratio Avg. LLE / COX2 2 minutes pge2 area (counts) Avg. LLE: average LLE; for IC50: average
Procedure: We have adapted a previously reported cyclooxygenase enzymatic assay utilizing LCMS quantification of PGE2 as the product of COX-1 and COX2 catalyzed conversion of arachidonic acid to evaluate the binding properties of newly synthesized ligands [Cao, 2011]. These optimized and miniaturized (384-well plates) LCMS-based COX-1 and COX2 enzymatic assays enabled us to quickly evaluate newly synthesized ligands for COX2 binding affinity and selectivity vs COX-1. Using a shorter ligand-enzyme incubation time in the LCMS assay (2 minutes vs 10 minutes) also permitted us to prioritize ligands with faster binding kinetics. Considering the relatively slow on-rate kinetics of known coxibs, due to their 3-step binding mechanism [Marnett, 2009], we believe that optimizing this critical parameter will be key to the successful development of a COX2 PET tracer. Using these enzymatic assays, we have evaluated>200 newly synthesized ligands against COX2 and >20 ligands against COX-1. Another critical property necessary for a good PET radiotracer is to have low non-specific binding (NSB) to increase the free fraction and maximize the signal to noise ratio. This property can be evaluated using in-vitro protein binding assays, and we have now evaluated>50 newly synthesized ligands in mouse, rat and human plasma protein binding (PPB) assays as well as >15 ligands in a mouse brain protein binding (BPB) assay.
Ovine COX-1 (oCOX-1), ovine COX2 (oCOX2), human recombinant COX2 (hCOX2), arachidonic acid, PGE2, d4-PGD2, and […] (labeled with deuterium atoms at positions 3 and 4) were purchased from Cayman Chemicals (Ann Arbor, Mich.). The cofactors (−)epinephrine and hematin, and the COX inhibitors indomethacin, resveratrol and diclofenac were purchased from Sigma-Aldrich (St. Louis, Mo.). Celecoxib was purchased from 3B PharmaChem International (Wuhan, China). All organic solvents were HPLC grade or better and were purchased from Thermo Fisher (Hanover Park, Ill.). Formic acid was purchased from EMD Chemicals (San Diego, Calif.). Purified water was prepared by using a Millipore Milli-Q purification system (Millipore, Billerica, Mass.). All other chemicals and solvents were ACS reagent grade, unless stated otherwise.
In an Eppendorf tube, 146 μL of 100 mM Tris.HCl (pH 8.0) buffer, 2 μL of 100 μM hematin (co-factor) and 10 μL of 40 mM L-epinephrine (co-factor) were mixed at room temperature. Next, 20 μL of Tris.HCl (pH 8.0) buffer containing 0.2 μg COX2 or 0.1 μg COX-1 (approximately 1 unit of enzyme; 1 unit COX utilizes 1 nmol 02/mg/min at 37° C.) was added, and the solution was incubated at room temperature for 2 min. A 2 μL aliquot of the COX inhibitor in DMSO was added to the enzyme solution and preincubated at 37° C. for 10 min. Negative controls were identical except that 2 μL aliquots of DMSO without inhibitor were used instead.
Each COX reaction was initiated by adding 20 μL of arachidonic acid in Tris.HCl (pH 8.0) buffer to give a final concentration of 5 μM; and the reaction was terminated after 2 min by adding 20 μL of 2.0 M HCl. The surrogate standards d4-PGE2 and d4-PGD2 (10 μL aliquot of 50 ng/mL solution in methanol) were added to correct for errors or degradation during sample handling and for variation in injection volume or instrument response during LC-MS-MS. After 30 min, PGE2, PGD2 and their surrogate standards were extracted from each incubation mixture using 800 μL hexane/ethyl acetate (50:50, v/v). The organic phase was removed, evaporated to dryness, and reconstituted in 100 μL methanol/water (50:50, v/v) for analysis using LC-MS-MS.
The concentration of PGE2 in each sample was measured using LC-MS-MS, and the percent of COX inhibition by each test solution was determined by comparing the amount of PGE2 produced in the experiment with that produced in the negative control incubation. The formation of PGD2 was measured for quality control purposes, since the levels of PGD2 should be proportional to those of PGE2. […]

[1] = readout pge2/pge2d4 area ratio, read-out: COX2 2 minutes pge2/pge2d4 area ratio Avg. IC50
[2] = readout pge2 area (counts), read-out: COX2 2 minutes pge2 area (counts) Avg. IC50
[3] = read-out: COX2 2 minutes pge2/pge2d4 area ratio Avg. IC50 (microM), readout pge2/pge2d4 area ratio, 2 min

| SMILES | COX2 2 minutes pge2/pge2d4 area ratio Avg. LLE (readout pge2/pge2d4 area ratio) | IC50 [1] | COX2 2 minutes pge2 area (counts) Avg. LLE (readout pge2 area (counts)) | IC50 [2] | IC50 (read-out: COX2 2 minutes pge2/pge2d4 area ratio Avg. IC50 (microM), readout pge2/pge2d4 area ratio) | IC50 [3] |
| --- | --- | --- | --- | --- | --- | --- |
| C[C@H](Nc1cccc(-c2ccc(S(C)(=O)=O)cc2)n1)c1ccco1 (single isomer, unassigned) [Compound 89] | 3.84 | 0.0656 µM | 3.875 | 0.06 µM | – | – |
| C[C@@H](Nc1cccc(-c2ccc(S(C)(=O)=O)cc2)n1)c1ccoc1 (single isomer, unassigned) [Compound 112] | 3.614 | 0.102 µM | 3.525 | 0.108 µM | – | – |
| CS(=O)(=O)c1ccc(-c2cccc(C3CC3c3ccoc3)n2)cc1 (single isomer, unassigned) [Compound 115, 2-[2-(furan-3-yl)cyclopropyl]-6-(4-methanesulfonylphenyl)pyridine] | 2.867 | 0.107 µM | 2.982 | 0.0632 µM | – | – |
| CS(=O)(=O)c1ccc(-c2cncc(SC[C@H]3CCCO3)n2)cc1 (single isomer, unassigned) [Compound 154] | 4.687 | 0.315 µM | 4.726 | 0.295 µM | – | – |
| CS(=O)(=O)c1ccc(-c2cncc(NC[C@H]3CCCS3)n2)cc1 (single isomer, unassigned) [Compound 162] | 4.811 | 0.401 µM | 4.888 | 0.345 µM | – | – |
| CS(=O)(=O)c1ccc(-c2cncc(NC[C@@H]3CCCS3)n2)cc1 (single isomer, unassigned) [Compound 167] | 4.792 | 0.432 µM | 4.782 | 0.433 µM | – | – |
| CS(=O)(=O)c1ccc(-n2ccc3ccc([C@H](O)c4cccs4)nc32)cc1 (single isomer, unassigned) [Compound 168] | – | 0.437 µM | – | 0.425 µM | – | – |
| CS(=O)(=O)c1ccc(-c2cncc(OC[C@@H]3CCCS3)n2)cc1 (single isomer, unassigned) [Compound 170] | 4.61 | 0.442 µM | 4.149 | 0.931 µM | – | – |
| CS(=O)(=O)c1ccc(-c2cccc(C3CC3c3ccoc3)n2)cc1 (single isomer, unassigned) [Compound 177, 2-[2-(furan-3-yl)cyclopropyl]-6-(4-methanesulfonylphenyl)pyridine] | 3.065 | 0.534 µM | 2.982 | 0.635 µM | – | – |
| CS(=O)(=O)c1ccc(-c2cncc(SC[C@@H]3CCCO3)n2)cc1 (single isomer, unassigned) [Compound 186] | 4.315 | 0.627 µM | 4.316 | 0.616 µM | – | – |
| CS(=O)(=O)c1ccc(-c2cncc(OC[C@H]3CCCS3)n2)cc1 (single isomer, unassigned) [Compound 198] | 4.116 | 0.964 µM | 4.04 | 1.23 µM | – | – |
| CS(=O)(=O)c1ccc(-n2ccc3ccc([C@@H](O)c4cccs4)nc32)cc1 (single isomer, unassigned) [Compound 209] | – | 1.34 µM | – | 1.44 µM | – | – |
| C[C@@H](Oc1cccc(-c2ccc(S(C)(=O)=O)cc2)n1)c1cccs1 (single isomer, unassigned) [Compound 229] | 1.429 | 2.25 µM | 1.483 | 1.99 µM | – | – |
| C[C@H](Nc1cccc(-c2ccc(S(C)(=O)=O)cc2)n1)c1ccoc1 (single isomer, unassigned) [Compound 241] | 2.087 | 2.96 µM | 1.8776 | 4.36 µM | – | – |
| C[C@@H](Oc1cncc(-c2ccc(S(C)(=O)=O)cc2)n1)c1cccs1 (single isomer, unassigned) [Compound 249] | 2.526 | 3.44 µM | 2.379 | 4.08 µM | – | – |
| C[C@@H](Nc1cccc(-c2ccc(S(C)(=O)=O)cc2)n1)c1ccco1 (single isomer, unassigned) [Compound 274] | 1.914 | – | 1.914 | – | 5.2 µM | – |
| CS(=O)(=O)c1ccc(-c2cccc(C3CC3c3ccoc3)n2)cc1 (single isomer, unassigned) [Compound 314, 2-[2-(furan-3-yl)cyclopropyl]-6-(4-methanesulfonylphenyl)pyridine] | – | – | 2.024 | – | – | 5.2 µM |
| CS(=O)(=O)c1ccc(-c2cccc(C3CC3c3ccoc3)n2)cc1 (single isomer, unassigned) [Compound 322, 2-[2-(furan-3-yl)cyclopropyl]-6-(4-methanesulfonylphenyl)pyridine] | – | – | – | – | – | 5.2 µM |
| CS(=O)(=O)c1ccc(-c2cncc(OCc3ccc(Cl)s3)n2)cc1 [Compound 4] | 4.855 | 0.006 µM | 4.615 | 0.0141 µM | – | – |
| COc1ncc(OCc2ccoc2)nc1-c1ccc(S(C)(=O)=O)cc1 [Compound 22] | 5.719 | 0.0112 µM | 5.729 | 0.0112 µM | – | – |
| Cc1cocc1CNc1cccc(-c2ccc(S(C)(=O)=O)cc2)n1 [Compound 40] | 4.502 | 0.0188 µM | 4.487 | 0.0207 µM | – | – |
| CS(=O)(=O)c1ccc(-c2coc3ccc(NCc4ccoc4)nc23)cc1 [Compound 55] | – | 0.0305 µM | – | 0.0265 µM | – | – |
